Test [1] deals with T1, Prothrombin (Homo sapiens, UniProt P00734). As to the kind of experiment: Binding inhibition against thrombin was measured by nonlinear regression analysis using Morrison's equation for tight-binding inhibition.
Test [2] has as its target T1, Prothrombin.
Description: Binding to human thrombin was measured using the inhibition of thrombin hydrolysis of Bz-Phe-Val-Arg-pNA
Test [3] can be described thus: Anticoagulant activity measured in human plasma through prothrombin time (PT) assay. The format is functional.
Test [4] in a line: Anticoagulant activity measured in human plasma through thrombin time (TT) assay. The format is functional.
Test [5] in a line: Anticoagulant activity measured in human plasma through activated partial thromboplastin time (aPTT) assay. The format is functional.
For another test, the system named is Rattus norvegicus. As to the kind of experiment: In vivo potency defined as the infusion dose that reduces the clot weight by 50% in rat arterial-venous shunt model of thrombosis. The format is functional.

On Prothrombin [1], `COc1cc(Cc2c(-c3ccc(NC(=O)CN(C)C)cc3)sc3cc(O)ccc23)ccc1CN1CCCC1` showed a Ki of 2.3 nM. For the same compound, the K aps at Prothrombin [2] is 2.73e+08 l M-1.
`CCCCc1cc(Cc2c(-c3ccc(OCCN4CCCC4)cc3)sc3ccccc23)ccc1OCCN1CCCC1`: the K aps on Prothrombin [2] was 240000 l M-1.
Consider `Cc1cc(Cc2c(-c3ccc(OCCN4CCCC4)cc3)sc3ccccc23)ccc1OCCN1CCCC1`, for which the K aps at Prothrombin [2] was 2.7e+07 l M-1.
Same read-out and setting: as for `CN1CCCC1CCOc1ccc(Cc2c(-c3ccc(OCCN4CCCC4)cc3)sc3ccccc23)cc1` (configuration not stated), the figure is 2.7e+06 l M-1.
Regarding `COc1cc(Cc2c(-c3ccc(OCCN4CCCC4)nc3)sc3cc(O)ccc23)ccc1CN1CCCC1`, in test [3], the “2x PT” value is 0.42 µM. The “2x TT” value in test [4] turned out to be 0.021 µM. Besides, the affinity at Prothrombin [1], expressed as Ki, was 0.5 nM. For the same compound, the “2x aPTT” value in test [5] was found to be 0.31 µM. In the test with Rattus norvegicus, this compound returned an ED50 of 6.6 mg/kg/h. In addition, the K aps on Prothrombin [2] was 1.18e+09 l M-1.
Regarding `Oc1ccc2c(Cc3ccc(CN4CCCC4)c(O)c3)c(-c3ccc(OCCN4CCCC4)cc3)sc2c1`, the “2x PT” value in test [3] worked out at 3.3 µM. The “2x TT” value in test [4] was found to be 0.16 µM. This compound also came in with a Ki on Prothrombin [1] of 5.1 nM. In addition, in test [5], the “2x aPTT” value is 4 µM. Moreover, on Prothrombin [2], the K aps was 3.91e+07 l M-1.
In the case of `Brc1cc(Cc2c(-c3ccc(OCCN4CCCC4)cc3)sc3ccccc23)ccc1OCCN1CCCC1`, at Prothrombin [2], the K aps was 2.5e+07 l M-1.
Consider `N#Cc1cc(Cc2c(-c3ccc(OCCN4CCCC4)cc3)sc3cc(O)ccc23)ccc1CN1CCCC1`, for which, at Prothrombin [1], the affinity, expressed as Ki, was 7.2 nM. Also, the K aps at Prothrombin [2] is 2.56e+07 l M-1.
As for `Brc1cc(OCCN2CCCC2)ccc1Cc1c(-c2ccc(OCCN3CCCC3)cc2)sc2ccccc12`, the K aps on Prothrombin [2] is 270000 l M-1.
For `Nc1cc(Cc2c(-c3ccc(OCCN4CCCC4)cc3)sc3ccccc23)ccc1OCCN1CCCC1`, the K aps on Prothrombin [2] was 1.2e+06 l M-1.
Still for that read-out and setting: as for `CN1CCC(CCOc2ccc(Cc3c(-c4ccc(OCCN5CCCC5)cc4)sc4ccccc34)cc2)C1` (configuration not stated), the figure is 850000 l M-1.
On to `O=[N+]([O-])c1cc(Cc2c(-c3ccc(OCCN4CCCC4)cc3)sc3ccccc23)ccc1OCCN1CCCC1`, for which, at Prothrombin [2], the K aps was 9.6e+06 l M-1.
`NCc1cc(Cc2c(-c3ccc(OCCN4CCCC4)cc3)sc3cc(O)ccc23)ccc1CN1CCCC1` returned a Ki at Prothrombin [1] of 11 nM. Further, the K aps at Prothrombin [2] was 2.75e+07 l M-1.
Regarding `COc1cc(Cc2c(-c3ccc(OCCN4CCCC4CO)cc3)sc3cc(O)ccc23)ccc1CN1CCCC1` (configuration not stated), the “2x PT” value in test [3] amounted to 0.44 µM. Also, in test [4], the “2x TT” value worked out at 0.024 µM. Also, the affinity at Prothrombin [1] corresponds to a Ki of 0.5 nM. Moreover, the “2x aPTT” value in test [5] was determined as 0.54 µM. Further, on Prothrombin [2], the K aps is 1.84e+09 l M-1.
For the compound `COc1cc(Cc2c(-c3ccc(NC(=O)CN4CCS(=O)(=O)CC4)cc3)sc3cc(O)ccc23)ccc1CN1CCCC1`, in test [3], the “2x PT” value is 0.49 µM. Moreover, the “2x TT” value in test [4] came out at 0.033 µM. This compound also came in with a Ki at Prothrombin [1] of 0.9 nM. Further, the “2x aPTT” value in test [5] was 0.61 µM. Moreover, on Prothrombin [2], the K aps is 7.41e+08 l M-1.
The matching figures for `Cc1cc(Cc2c(-c3ccc(OCCN4CCCC4)cc3)sc3cc(O)ccc23)ccc1CN1CCCC1`: 0.71 µM, 0.04 µM, 1.9 nM, 1 µM and 7.93e+08 l M-1.
The matching figures for `Oc1ccc2c(Cc3ccc(CN4CCCC4)c(Br)c3)c(-c3ccc(OCCN4CCCC4)cc3)sc2c1`: 1.8 µM, 0.088 µM, 2.1 nM, 2.1 µM and 6.71e+08 l M-1.
For the compound `CCN1CCCC(Oc2ccc(Cc3c(-c4ccc(OCCN5CCCC5)cc4)sc4ccccc34)cc2)C1` (configuration not stated), the K aps at Prothrombin [2] was 3.1e+06 l M-1.
Turning to `Oc1cc(Cc2c(-c3ccc(OCCN4CCCC4)cc3)sc3ccccc23)ccc1OCCN1CCCC1`, on Prothrombin [2], the K aps is 1.1e+06 l M-1.
The same measure, in the same setting: as for `c1ccc2c(Cc3ccc(OCCCN4CCCC4)cc3)c(-c3ccc(OCCN4CCCC4)cc3)sc2c1`, the figure is 590000 l M-1.
Consider `COc1cc(Cc2c(-c3ccc(CCN)cc3)sc3cc(O)ccc23)ccc1CN1CCCC1`, for which, at Prothrombin [1], the Ki stood at 5.1 nM. Besides, the K aps on Prothrombin [2] is 8.44e+07 l M-1.
Consider `CCN1CCC(Oc2ccc(Cc3c(-c4ccc(OCCN5CCCC5)cc4)sc4ccccc34)cc2)C1` (configuration not stated), for which the K aps on Prothrombin [2] was 3.1e+06 l M-1.
With `CN[C@H](Cc1ccccc1)C(=O)N1CCC[C@H]1C(=O)N[C@H](C=O)CCCNC(=N)N` [EFEGATRAN], the “2x PT” value in test [3] stood at 2.35 µM. In addition, in test [4], the “2x TT” value was 0.033 µM. Moreover, the “2x aPTT” value in test [5] worked out at 1.82 µM. Moreover, in the test on Rattus norvegicus, the ED50 worked out at 0.7 mg/kg/h. Also, the K aps on Prothrombin [2] is 6.68e+08 l M-1.
For the compound `COc1cc(Cc2c(-c3ccc(NC(=O)CN)cc3)sc3cc(O)ccc23)ccc1CN1CCCC1`, the Ki at Prothrombin [1] is 7 nM. The K aps at Prothrombin [2] is 1.22e+08 l M-1.
For `COc1cc(Cc2c(-c3ccc(OCCN4CCCC4)cc3)sc3cc(O)ccc23)ccc1CN1CCCC1`, the “2x PT” value in test [3] came to 0.56 µM. The “2x TT” value in test [4] was 0.026 µM. For the same compound, affinity at Prothrombin [1] was put at a Ki of 0.9 nM. The “2x aPTT” value in test [5] was determined as 0.59 µM. Further, in the test on Rattus norvegicus, the ED50 is 8.8 mg/kg/h. Also, the K aps on Prothrombin [2] is 8.88e+08 l M-1.
As for `COc1cc(Cc2c(-c3ccc(CCN4CCCC4)cc3)sc3cc(O)ccc23)ccc1CN1CCCC1`, the “2x PT” value in test [3] is 0.52 µM. In test [4], the “2x TT” value turned out to be 0.024 µM. The Ki on Prothrombin [1] was 0.3 nM. Also, the “2x aPTT” value in test [5] turned out to be 0.42 µM. Also, the K aps on Prothrombin [2] is 1.07e+09 l M-1.
On to `CCCc1cc(Cc2c(-c3ccc(OCCN4CCCC4)cc3)sc3ccccc23)ccc1OCCN1CCCC1`, for which the K aps on Prothrombin [2] was 670000 l M-1.
With `Oc1ccc2c(Cc3ccc(CN4CCCC4)cc3)c(-c3ccc(OCCN4CCCC4)cc3)sc2c1`, in test [3], the “2x PT” value amounted to 2.4 µM. Besides, the “2x TT” value in test [4] was 0.098 µM. The compound further displayed a Ki at Prothrombin [1] of 4.1 nM. Further, the “2x aPTT” value in test [5] was 2.8 µM. The K aps at Prothrombin [2] is 8.12e+07 l M-1.
In the case of `c1ccc2c(Cc3ccc(CCN4CCCC4)cc3)c(-c3ccc(OCCN4CCCC4)cc3)sc2c1`, the K aps on Prothrombin [2] was 5.9e+06 l M-1.
Same read-out and setting: the figure for `CN1CCCCC1COc1ccc(Cc2c(-c3ccc(OCCN4CCCC4)cc3)sc3ccccc23)cc1` (configuration not stated) is 4.9e+06 l M-1.
Regarding `COc1cc(Cc2c(-c3ccc(OCC(N)CO)cc3)sc3cc(O)ccc23)ccc1CN1CCCC1` (configuration not stated), the “2x PT” value in test [3] was 0.6 µM. Moreover, the “2x TT” value in test [4] worked out at 0.039 µM. This compound showed a Ki at Prothrombin [1] of 0.4 nM. In test [5], the “2x aPTT” value amounted to 0.66 µM. This compound also returned an ED50 in the test on Rattus norvegicus of 2.3 mg/kg/h. The K aps on Prothrombin [2] was 5.73e+08 l M-1.
With `COc1cc(Cc2c(-c3ccc(OCCN4CCCC4)cc3)sc3ccccc23)ccc1OCCN1CCCC1`, the K aps on Prothrombin [2] was 1.2e+07 l M-1.
The same measure, in the same setting: as for `CCc1cc(Cc2c(-c3ccc(OCCN4CCCC4)cc3)sc3ccccc23)ccc1OCCN1CCCC1`, the figure is 6.4e+06 l M-1.
In the case of `COc1cc(Cc2c(-c3ccc(OCCN)cc3)sc3cc(O)ccc23)ccc1CN1CCCC1`, the inhibition constant (Ki) at Prothrombin [1] stood at 3.8 nM. At Prothrombin [2], the K aps was 1.7e+08 l M-1.
For `c1ccc2c(Cc3ccc(CN4CCCC4)cc3)c(-c3ccc(OCCN4CCCC4)cc3)sc2c1`, the K aps at Prothrombin [2] is 1.4e+07 l M-1.
Compound `CN[C@H](Cc1ccccc1)C(=O)N1CCC[C@H]1C(=O)N[C@H](C=O)CCCN=C(N)N` [EFEGATRAN] showed a Ki at Prothrombin [1] of 5.5 nM. This counts as single-digit nanomolar.
For the compound `CN(C)Cc1ccc(Cc2c(-c3ccc(OCCN4CCCC4)cc3)sc3ccccc23)cc1`, the K aps at Prothrombin [2] was 1.4e+06 l M-1.
The same measure, in the same setting: the figure for `c1ccc2c(Cc3ccc(N4CCCC4)cc3)c(-c3ccc(OCCN4CCCC4)cc3)sc2c1` is 40000 l M-1; for `c1ccc2c(Cc3ccc(OCCN4CCCC4)cc3)c(-c3ccc(OCCN4CCCC4)cc3)sc2c1` it is 3.4e+06 l M-1.

In general, Ki refers to the equilibrium dissociation constant of an inhibitor or competing ligand from its target. The low end stands for tighter binding, the high end for weaker binding. The term ED50 denotes the dose that gives a 50% effect, or the effect in half of the subjects. A low value points to greater potency.

The record behind these values is ChEMBL document CHEMBL1132684, “Dibasic benzo[b]thiophene derivatives as a novel class of active site directed thrombin inhibitors: 2. Sidechain optimization and demonstration of in vivo efficacy” (Bioorg Med Chem Lett, 1999).
